Test results as given in the supplement of paper PMC10307832.

Tests used:
Assay in all cases: relative viability (nuclei count vs DMSO), 5 days (fraction); higher = more cells survive
Ibrutinib + Tozasertib = compound: C=CC(=O)N1CCC[C@@H](n2nc(-c3ccc(Oc4ccccc4)cc3)c3c(N)ncnc32)C1 [Ibrutinib] + Cc1cc(Nc2cc(N3CCN(C)CC3)nc(Sc3ccc(NC(=O)C4CC4)cc3)n2)n[nH]1 [Tozasertib] (partner 0.1 µM)
Summary of the method: (§1)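 Lung cancer cell lines, seeded in 1536-well plates, were treated the following day by pin tool with a single drug or with five library-drug doses (not always all listed) in √10 steps on top of a fixed anchor-drug dose. Cells were fixed and nuclei stained in one step after 5 days, and nuclei were counted. Relative viability is the nuclei count for treated wells divided by that for vehicle wells, reported as medians of duplicate plates.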

BMX-IN-1 + Alpelisib = compound: C=CC(=O)Nc1cc(-n2c(=O)ccc3cnc4ccc(-c5ccc(NS(C)(=O)=O)cc5)cc4c32)ccc1C [BMX-IN-1] + Cc1nc(NC(=O)N2CCC[C@H]2C(N)=O)sc1-c1ccnc(C(C)(C)C(F)(F)F)c1 [Alpelisib] (partner 2 µM)
Summary of the method: as §1

BMX-IN-1 + Luminespib = compound: C=CC(=O)Nc1cc(-n2c(=O)ccc3cnc4ccc(-c5ccc(NS(C)(=O)=O)cc5)cc4c32)ccc1C [BMX-IN-1] + CCNC(=O)c1noc(-c2cc(C(C)C)c(O)cc2O)c1-c1ccc(CN2CCOCC2)cc1 [Luminespib] (partner 0.01 µM)
Summary of the method: as §1

PAC-1 + Foretinib = compound: C=CCc1cccc(/C=N/NC(=O)CN2CCN(Cc3ccccc3)CC2)c1O [PAC-1] + COc1cc2c(Oc3ccc(NC(=O)C4(C(=O)Nc5ccc(F)cc5)CC4)cc3F)ccnc2cc1OCCCN1CCOCC1 [Foretinib] (partner 0.25 µM)
Summary of the method: as §1

Work on SK-MES-1 yielded a relative viability (Ibrutinib + Tozasertib; first compound 0.005 µM) of 0.997, a relative viability (Ibrutinib + Tozasertib; first compound 0.01581 µM) of 0.872 and a relative viability (Ibrutinib + Tozasertib; first compound 0.05 µM) of 0.965. For the same cell line, the relative viability (Ibrutinib + Tozasertib; first compound 0.1581 µM) was 1.03, the relative viability (Ibrutinib + Tozasertib; first compound 0.5 µM) was 0.669 and the relative viability (BMX-IN-1 + Alpelisib; first compound 0.02 µM) was 1.09. The relative viability (BMX-IN-1 + Alpelisib; first compound 0.2 µM) was 0.947, the relative viability (BMX-IN-1 + Alpelisib; first compound 0.6325 µM) was 0.911 and the relative viability (BMX-IN-1 + Alpelisib; first compound 2 µM) was 0.88. The relative viability (BMX-IN-1 + Luminespib; first compound 0.02 µM) was 0.831, the relative viability (BMX-IN-1 + Luminespib; first compound 0.2 µM) was 0.879 and the relative viability (BMX-IN-1 + Luminespib; first compound 0.6325 µM) was 0.835. The relative viability (BMX-IN-1 + Luminespib; first compound 2 µM) was 0.921, the relative viability (PAC-1 + Foretinib; first compound 0.02 µM) was 0.816 and the relative viability (PAC-1 + Foretinib; first compound 0.06325 µM) was 1.03. For the same cell line, the relative viability (PAC-1 + Foretinib; first compound 0.2 µM) was 0.851 and the relative viability (PAC-1 + Foretinib; first compound 2 µM) was 0.943.
